According to the supplement of paper PMC10331698:
± gives the standard deviation of the averaged measurements.

Experiments:
Experiment in all cases: level (log10 ratio to DMSO vehicle control); higher = higher biomarker level / cell amount than vehicle control
Details in all cases: in DMSO
[1] = compound: COC(=O)CCC(F)(F)C(F)(F)C(F)(F)C(F)(F)F [Methyl 2H,2H,3H,3H-perfluoroheptanoate]
Description: (§1)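 BioMAP Diversity Plus panel of 12 human primary cell co-culture systems (3C, 4H, LPS, SAg, BT, BF4T, BE3C, CASM3C, HDF3CGF, KF3CT, MyoF, Mphg). Compounds were added 1 h before stimulation and left for 24 h (MyoF 48 h; BT 72 h for soluble read-outs or 6 d for IgG). Biomarkers were read by ELISA, cytotoxicity by SRB, PBMC viability and proliferation by Alamar Blue. Each well value was divided by the mean of 8 DMSO control wells on the same plate and log10 transformed; duplicate blinded samples were tested at 4 concentrations.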

[2] = compound: NCC(F)(F)C(F)(F)C(F)(F)C(F)(F)C(F)(F)C(F)(F)C(F)(F)F [1H,1H-Perfluorooctylamine]
Description: as §1

[3] = compound: FC(F)(F)C(F)(F)C(F)(F)C(F)(F)C(F)(F)CCI [1-Iodo-1H,1H,2H,2H-perfluoroheptane]
Description: as §1

[4] = compound: O=C(O)C(F)(F)OC(F)(F)C(F)(F)OC(F)(F)F [Perfluoro-3,6-dioxaheptanoic acid]
Description: as §1

Heptafluorobutyramide = compound: NC(=O)C(F)(F)C(F)(F)C(F)(F)F [Heptafluorobutyramide]
Description: as §1

Perfluoro-1-iodohexane = compound: FC(F)(F)C(F)(F)C(F)(F)C(F)(F)C(F)(F)C(F)(F)I [Perfluoro-1-iodohexane]
Description: as §1

Test System	level (log10) ([1]; 6700 nM)	level (log10) ([1]; 20000 nM)	level (log10) ([1]; 60000 nM)	level (log10) ([2]; 6700 nM)	level (log10) ([2]; 20000 nM)	level (log10) ([2]; 60000 nM)	level (log10) ([3]; 6700 nM)	level (log10) ([3]; 20000 nM)	level (log10) ([3]; 60000 nM)	level (log10) ([4]; 6700 nM)	level (log10) ([4]; 20000 nM)	level (log10) ([4]; 60000 nM)	level (log10) (Heptafluorobutyramide; 6700 nM)	level (log10) (Heptafluorobutyramide; 20000 nM)	level (log10) (Heptafluorobutyramide; 60000 nM)	level (log10) (Perfluoro-1-iodohexane; 6700 nM)	level (log10) (Perfluoro-1-iodohexane; 20000 nM)	level (log10) (Perfluoro-1-iodohexane; 60000 nM)
BF4T:PAI-I	0.007 ± 0.025	0.0055 ± 0.012	-0.007 ± 0.0028	-0.004 ± 0.02	-0.008 ± 0.016	0.0115 ± 0.005	0.012 ± 0.014	0.005 ± 0.0014	0.0135 ± 0.016	-0.0215 ± 0.019	-0.018 ± 0.033	-0.002 ± 0.011	-0.0025 ± 0.0021	-0.014 ± 0.016	0.005 ± 0.027	-0.0095 ± 0.0035	-0.02 ± 0.0042	-0.006 ± 0.018
BF4T:SRB	-0.002 ± 0.0028	0.003 ± 0.0028	-0.003 ± 0.0014	-0.002 ± 0.0042	-0.005 ± 0.013	-0.0005 ± 0.016	-0.003 ± 0.0014	-0.0035 ± 0.00071	0.006 ± 0.016	-0.007 ± 0.0057	-0.0035 ± 0.0021	-0.003 ± 0.0028	-0.01 ± 0.0085	-0.0075 ± 0.00071	-0.005 ± 0.0099	-0.006 ± 0.0085	-0.011 ± 0.011	-0.0135 ± 0.016
BF4T:tPA	-0.019 ± 0.0085	-0.023 ± 0.0014	-0.0145 ± 0.013	-0.017 ± 0.023	-0.027 ± 0.021	0.003 ± 0.014	-0.0055 ± 0.012	-0.003 ± 0.011	0.0065 ± 0.012	-0.0365 ± 0.05	-0.0115 ± 0.063	-0.041 ± 0.068	-0.0065 ± 0.013	0.0015 ± 0.005	0.0135 ± 0.018	0.0015 ± 0.005	-0.0065 ± 0.018	0.036 ± 0.047
BF4T:uPA	-0.0055 ± 0.026	0.0015 ± 0.012	-0.0145 ± 0.005	-0.0085 ± 0.012	-0.016 ± 0.016	-0.0155 ± 0.00071	0.0125 ± 0.033	0.005 ± 0.0071	0.0135 ± 0.0064	-0.04 ± 0.027	-0.011 ± 0.011	0.0005 ± 0.025	-0.0045 ± 0.03	-0.006 ± 0.013	-0.006 ± 0.014	-0.0075 ± 0.013	-0.016 ± 0.024	-0.0165 ± 0.0035
BT:B cell Proliferation	-0.022 ± 0.023	-0.019 ± 0.047	-0.001 ± 0.05	0.0105 ± 0.025	0.0195 ± 0.016	0.039 ± 0.023	-0.0065 ± 0.049	0.0095 ± 0.015	-0.0815 ± 0.023	0.015 ± 0.0028	0.031 ± 0.048	0.0535 ± 0.042	0.0055 ± 0.018	-0.02 ± 0.025	-0.003 ± 0.03	-0.011 ± 0.054	-0.008 ± 0.011	-0.0135 ± 0.025
BT:PBMC Cytotoxicity	0.032 ± 0.014	0.0045 ± 0.0092	0.0045 ± 0.021	-0.0095 ± 0.005	-0.0065 ± 0.005	-0.0045 ± 0.036	-0.012 ± 0.03	-0.0265 ± 0.028	-0.024 ± 0.011	-0.011 ± 0.0099	0 ± 0.017	0.0015 ± 0.071	0.014 ± 0.0099	0.0025 ± 0.025	0.0105 ± 0.013	0.042 ± 0.014	-0.0045 ± 0.022	0.0285 ± 0.0035
BT:Secreted IgG	0.015 ± 0.017	-0.002 ± 0.0071	-0.025 ± 0.018	0.0485 ± 0.03	0.039 ± 0.034	-0.0175 ± 0.04	-0.006 ± 0.016	-0.002 ± 0.062	-0.0185 ± 0.08	0.003 ± 0.016	-0.016 ± 0.018	-0.018 ± 0.0057	0.034 ± 0.0085	-0.005 ± 0.031	0.0285 ± 0.025	0.0195 ± 0.023	-0.0165 ± 0.043	-0.0315 ± 0.081
BT:sIL-2	0.017 ± 0.018	-0.042 ± 0.037	0.027 ± 0.12	0.034 ± 0.079	0.022 ± 0.0085	-0.0465 ± 0.053	-0.068 ± 0.0042	0.027 ± 0.047	-0.15 ± 0.073	0.0035 ± 0.053	0.0105 ± 0.11	0.01 ± 0.072	0.068 ± 0.017	-0.041 ± 0.059	0.0165 ± 0.0092	0.0065 ± 0.052	-0.0005 ± 0.1	-0.0005 ± 0.098
BT:sIL-6	0.0555 ± 0.035	0.007 ± 0.018	-0.033 ± 0.038	0.041 ± 0.025	0.02 ± 0.05	-0.1305 ± 0.00071	-0.0395 ± 0.043	0.0425 ± 0.033	-0.077 ± 0.0099	0.021 ± 0.059	-0.009 ± 0.059	-0.0235 ± 0.064	0.0565 ± 0.0078	-0.013 ± 0.0071	-0.0215 ± 0.046	0.0615 ± 0.0035	0.028 ± 0.057	0.039 ± 0.045
BT:sIL-17A	-0.0765 ± 0.18	0.001 ± 0.11	-0.0075 ± 0.064	0.0455 ± 0.064	-0.035 ± 0.038	-0.184 ± 0.0071	-0.269 ± 0.12	0.037 ± 0.15	-0.22 ± 0.067	-0.0275 ± 0.093	-0.102 ± 0.26	-0.155 ± 0.16	-0.0055 ± 0.22	-0.177 ± 0.22	0.058 ± 0.082	-0.004 ± 0.018	-0.0905 ± 0.12	-0.089 ± 0.2
BT:sIL-17F	0.014 ± 0.12	-0.0295 ± 0.052	-0.024 ± 0.068	-0.033 ± 0.0071	-0.0475 ± 0.0064	-0.089 ± 0.017	-0.0855 ± 0.011	0.0525 ± 0.033	-0.0455 ± 0.16	-0.0035 ± 0.18	-0.033 ± 0.027	-0.0495 ± 0.021	-0.001 ± 0.035	-0.0165 ± 0.018	-0.006 ± 0.03	0.0035 ± 0.015	0.041 ± 0.12	0.0815 ± 0.061
BT:sTNF-alpha	0.0125 ± 0.042	-0.105 ± 0.055	0.0165 ± 0.12	0.0435 ± 0.1	0.057 ± 0.023	-0.0375 ± 0.076	-0.02 ± 0.038	0.063 ± 0.055	-0.114 ± 0.052	0.0935 ± 0.056	0.0375 ± 0.17	0.0755 ± 0.036	0.0705 ± 0.096	-0.057 ± 0.025	-0.0225 ± 0.0035	0.009 ± 0.031	-0.0095 ± 0.14	-0.0015 ± 0.16
LPS:CCL2/MCP-1	-0.011 ± 0.013	-0.013 ± 0.0071	-0.0065 ± 0.00071	-0.004 ± 0.031	-0.024 ± 0.014	-0.001 ± 0.0071	-0.013 ± 0.013	-0.013 ± 0.021	-0.0045 ± 0.021	0.0005 ± 0.022	-0.001 ± 0.04	-0.0085 ± 0.025	0.0255 ± 0.0035	0.0105 ± 0.0078	0.0275 ± 0.057	-0.0025 ± 0.005	-0.009 ± 0.0014	0.0015 ± 0.032
LPS:CD40	-0.017 ± 0.041	0.003 ± 0.051	-0.015 ± 0.078	-0.0195 ± 0.019	-0.0095 ± 0.023	-0.022 ± 0.04	0.0475 ± 0.061	0.056 ± 0.061	0.014 ± 0.078	-0.0055 ± 0.012	-0.0295 ± 0.039	-0.024 ± 0.038	0.0065 ± 0.022	-0.004 ± 0.071	0.001 ± 0.059	0.058 ± 0.0014	0.0375 ± 0.005	-0.0135 ± 0.061
LPS:CD62E/E-Selectin	-0.0315 ± 0.0021	-0.034 ± 0.0014	0.0015 ± 0.013	-0.017 ± 0.03	-0.005 ± 0.033	0.008 ± 0.017	0.0045 ± 0.012	0.004 ± 0.0042	-0.0005 ± 0.0064	0 ± 0.021	-0.018 ± 0.05	-0.006 ± 0.017	-0.0065 ± 0.022	-0.0195 ± 0.016	-0.0365 ± 0.035	-0.0115 ± 0.0035	-0.0175 ± 0.011	0.015 ± 0.023
LPS:CD69	-0.019 ± 0.047	0.0115 ± 0.042	-0.01 ± 0.052	-0.045 ± 0.017	-0.0255 ± 0.036	0.002 ± 0.0071	-0.015 ± 0.0071	-0.015	-0.019 ± 0.0057	-0.0125 ± 0.0064	-0.044 ± 0.035	-0.0165 ± 0.019	0.028 ± 0.076	-0.0065 ± 0.056	-0.009 ± 0.069	-0.0185 ± 0.0064	-0.0025 ± 0.0035	-0.032 ± 0.0099
